# Measured values as given in ChEMBL document CHEMBL3046339, “Insecticidal activity of Maytenus species (Celastraceae) nortriterpene quinone methides against codling moth, Cydia pomonella (L.) (Lepidoptera: tortricidae)” (2000).
# How the values were obtained:
# Type in all cases: functional
# Cydia pomonella [1] = test: Antifeedant activity against Cydia pomonella (codling moth) at 4 mg/kg diet topically measured after 10 days of continuous exposure (reference value: 6.7 +/- 6.7%)
# Cydia pomonella [2] = test: Insecticidal activity against Cydia pomonella (codling moth) assessed as mortality at 1 mg/kg diet topically measured after 10 days of continuous exposure (reference value: 3.3 +/- 3.3%); conditions: topical, 240 h
# Cydia pomonella [3] = test: Insecticidal activity against Cydia pomonella (codling moth) assessed as mortality at 2 mg/kg diet topically measured after 10 days of continuous exposure (reference value: 3.3 +/- 3.3%); conditions: topical, 240 h
# Cydia pomonella [4] = test: Insecticidal activity against Cydia pomonella (codling moth) at 16 mg/kg assessed as growth regulation measured as number of head capsules of larvae after 5 days of continuous exposure (reference value: 0.2 +/- 0.2%)
# Cydia pomonella [5] = test: Antifeedant activity against Cydia pomonella (codling moth) at 2 mg/kg diet topically measured after 5 days of continuous exposure (reference value: 6.7 +/- 6.7%)
# Cydia pomonella [6] = test: Insecticidal activity against Cydia pomonella (codling moth) assessed as mortality at 12 mg/kg diet topically measured after 5 days of continuous exposure (reference value: 0%); conditions: topical, 120 h
# Cydia pomonella [7] = test: Insecticidal activity against Cydia pomonella (codling moth) at 8 mg/kg assessed as growth regulation measured as number of head capsules of larvae after 5 days of continuous exposure (reference value: 0.2 +/- 0.2%)
# Cydia pomonella [8] = test: Antifeedant activity against Cydia pomonella (codling moth) at 1 mg/kg diet topically measured after 10 days of continuous exposure (reference value: 6.7 +/- 6.7%)
# Cydia pomonella [9] = test: Insecticidal activity against Cydia pomonella (codling moth) at 20 mg/kg assessed as growth regulation measured as number of head capsules of larvae after 5 days of continuous exposure (reference value: 0.2 +/- 0.2%)
# Cydia pomonella [10] = test: Insecticidal activity against Cydia pomonella (codling moth) assessed as mortality at 6 mg/kg diet topically measured after 10 days of continuous exposure (reference value: 3.3 +/- 3.3%); conditions: topical, 240 h
# Cydia pomonella [11] = test: Insecticidal activity against Cydia pomonella (codling moth) assessed as mortality at 8 mg/kg diet topically measured after 10 days of continuous exposure (reference value: 3.3 +/- 3.3%); conditions: topical, 240 h
# Cydia pomonella [12] = test: Insecticidal activity against Cydia pomonella (codling moth) at 18 mg/kg assessed as growth regulation measured as number of head capsules of larvae after 10 days of continuous exposure Rvb = (1.5 +/- 0.2%)
# Cydia pomonella [13] = test: Insecticidal activity against Cydia pomonella (codling moth) at 2 mg/kg assessed as growth regulation measured as number of head capsules of larvae after 5 days of continuous exposure (reference value: 0.2 +/- 0.2%)
# Cydia pomonella [14] = test: Insecticidal activity against Cydia pomonella (codling moth) assessed as mortality at 1 mg/kg diet topically measured after 5 days of continuous exposure (reference value: 0%); conditions: topical, 120 h
# Cydia pomonella [15] = test: Insecticidal activity against Cydia pomonella (codling moth) assessed as mortality at 20 mg/kg diet topically measured after 10 days of continuous exposure (reference value: 3.3 +/- 3.3%); conditions: topical, 240 h
# Cydia pomonella [16] = test: Insecticidal activity against Cydia pomonella (codling moth) at 2 mg/kg assessed as growth regulation measured as number of head capsules of larvae after 10 days of continuous exposure Rvb = (1.5 +/- 0.2%)
# Cydia pomonella [17] = test: Antifeedant activity against Cydia pomonella (codling moth) at 18 mg/kg diet topically measured after 5 days of continuous exposure (reference value: 6.7 +/- 6.7%)
# Cydia pomonella [18] = test: Insecticidal activity against Cydia pomonella (codling moth) assessed as mortality at 20 mg/kg diet topically measured after 5 days of continuous exposure (reference value: 0%); conditions: topical, 120 h
# Cydia pomonella [19] = test: Antifeedant activity against Cydia pomonella (codling moth) at 20 mg/kg diet topically measured after 5 days of continuous exposure (reference value: 6.7 +/- 6.7%)
# Cydia pomonella [20] = test: Insecticidal activity against Cydia pomonella (codling moth) assessed as mortality treated diet topically measured after 10 days of continuous exposure; conditions: topical, 240 h
# Cydia pomonella [21] = test: Insecticidal activity against Cydia pomonella (codling moth) assessed as mortality at 6 mg/kg diet topically measured after 5 days of continuous exposure (reference value: 0%); conditions: topical, 120 h
# Cydia pomonella [22] = test: Insecticidal activity against Cydia pomonella (codling moth) at 12 mg/kg assessed as growth regulation measured as number of head capsules of larvae after 10 days of continuous exposure Rvb = (1.5 +/- 0.2%)
# Cydia pomonella [23] = test: Insecticidal activity against Cydia pomonella (codling moth) at 8 mg/kg assessed as growth regulation measured as number of head capsules of larvae after 10 days of continuous exposure Rvb = (1.5 +/- 0.2%)
# Cydia pomonella [24] = test: Antifeedant activity against Cydia pomonella (codling moth) at 6 mg/kg diet topically measured after 10 days of continuous exposure (reference value: 6.7 +/- 6.7%)
# Cydia pomonella [25] = test: Insecticidal activity against Cydia pomonella (codling moth) at 1 mg/kg assessed as growth regulation measured as number of head capsules of larvae after 5 days of continuous exposure (reference value: 0.2 +/- 0.2%)
# Cydia pomonella [26] = test: Insecticidal activity against Cydia pomonella (codling moth) at 4 mg/kg assessed as growth regulation measured as number of head capsules of larvae after 5 days of continuous exposure (reference value: 0.2 +/- 0.2%)
# Cydia pomonella [27] = test: Antifeedant activity against Cydia pomonella (codling moth) at 8 mg/kg diet topically measured after 5 days of continuous exposure (reference value: 6.7 +/- 6.7%)
# Cydia pomonella [28] = test: Antifeedant activity against Cydia pomonella (codling moth) at 4 mg/kg diet topically measured after 5 days of continuous exposure (reference value: 6.7 +/- 6.7%)
# Cydia pomonella [29] = test: Antifeedant activity against Cydia pomonella (codling moth) at 8 mg/kg diet topically measured after 10 days of continuous exposure (reference value: 6.7 +/- 6.7%)
# Cydia pomonella [30] = test: Antifeedant activity against Cydia pomonella (codling moth) at 12 mg/kg diet topically measured after 5 days of continuous exposure (reference value: 6.7 +/- 6.7%)
# Cydia pomonella [31] = test: Insecticidal activity against Cydia pomonella (codling moth) assessed as mortality at 8 mg/kg diet topically measured after 5 days of continuous exposure (reference value: 0%); conditions: topical, 120 h
# Cydia pomonella [32] = test: Antifeedant activity against Cydia pomonella (codling moth) at 6 mg/kg diet topically measured after 5 days of continuous exposure (reference value: 6.7 +/- 6.7%)
# Cydia pomonella [33] = test: Insecticidal activity against Cydia pomonella (codling moth) at 6 mg/kg assessed as growth regulation measured as number of head capsules of larvae after 10 days of continuous exposure Rvb = (1.5 +/- 0.2%)
# Cydia pomonella [34] = test: Insecticidal activity against Cydia pomonella (codling moth) assessed as mortality at 2 mg/kg diet topically measured after 5 days of continuous exposure (reference value: 0%); conditions: topical, 120 h
# Cydia pomonella [35] = test: Antifeedant activity against Cydia pomonella (codling moth) at 16 mg/kg diet topically measured after 10 days of continuous exposure (reference value: 6.7 +/- 6.7%)
# Cydia pomonella [36] = test: Antifeedant activity against Cydia pomonella (codling moth) at 20 mg/kg diet topically measured after 10 days of continuous exposure (reference value: 6.7 +/- 6.7%)
smiles,measurement,setting,value
CC1=C(O)C(=O)C=C2C1=CC=C1[C@@]2(C)CC[C@@]2(C)[C@@H]3C[C@](C)(O)C(=O)C[C@]3(C)CC[C@]12C [20ALPHA-HYDROXYTINGENONE],Activity,Cydia pomonella [1],33.3%
same,mortality at 1 mg/kg,Cydia pomonella [2],3.3%
same,mortality at 2 mg/kg,Cydia pomonella [3],0%
same,Activity,Cydia pomonella [4],0
same,Activity,Cydia pomonella [5],36.7%
same,mortality at 12 mg/kg,Cydia pomonella [6],53.3%
same,Activity,Cydia pomonella [7],0
same,Activity,Cydia pomonella [8],6.7%
same,Activity,Cydia pomonella [9],0
same,mortality at 6 mg/kg,Cydia pomonella [10],23.3%
same,mortality at 8 mg/kg,Cydia pomonella [11],43.3%
same,Activity,Cydia pomonella [12],0
same,Activity,Cydia pomonella [13],0.1
same,mortality at 1 mg/kg,Cydia pomonella [14],3.3%
same,mortality at 20 mg/kg,Cydia pomonella [15],100%
same,Activity,Cydia pomonella [16],1.4
same,Activity,Cydia pomonella [17],100%
same,mortality at 20 mg/kg,Cydia pomonella [18],100%
same,Activity,Cydia pomonella [19],100%
same,LC50,Cydia pomonella [20],8500 µg/mL
same,mortality at 6 mg/kg,Cydia pomonella [21],10%
same,Activity,Cydia pomonella [22],0.3
same,Activity,Cydia pomonella [23],0.2
same,Activity,Cydia pomonella [24],53.3%
same,Activity,Cydia pomonella [25],0.1
same,Activity,Cydia pomonella [26],0
same,Activity,Cydia pomonella [27],100%
same,Activity,Cydia pomonella [28],46.7%
same,Activity,Cydia pomonella [29],80%
same,Activity,Cydia pomonella [30],96.7%
same,mortality at 8 mg/kg,Cydia pomonella [31],3.3%
same,Activity,Cydia pomonella [32],83.3%
same,Activity,Cydia pomonella [33],0.6
same,mortality at 2 mg/kg,Cydia pomonella [34],0%
same,Activity,Cydia pomonella [35],100%
same,Activity,Cydia pomonella [36],100%
